In this test the target is T1, mouse TLR9 (Mus musculus, UniProt Q9EQU3).
T1 construct: host or cells: HEK293 (293-mTLR9)
T1 sequence (Q9EQU3 26-1032): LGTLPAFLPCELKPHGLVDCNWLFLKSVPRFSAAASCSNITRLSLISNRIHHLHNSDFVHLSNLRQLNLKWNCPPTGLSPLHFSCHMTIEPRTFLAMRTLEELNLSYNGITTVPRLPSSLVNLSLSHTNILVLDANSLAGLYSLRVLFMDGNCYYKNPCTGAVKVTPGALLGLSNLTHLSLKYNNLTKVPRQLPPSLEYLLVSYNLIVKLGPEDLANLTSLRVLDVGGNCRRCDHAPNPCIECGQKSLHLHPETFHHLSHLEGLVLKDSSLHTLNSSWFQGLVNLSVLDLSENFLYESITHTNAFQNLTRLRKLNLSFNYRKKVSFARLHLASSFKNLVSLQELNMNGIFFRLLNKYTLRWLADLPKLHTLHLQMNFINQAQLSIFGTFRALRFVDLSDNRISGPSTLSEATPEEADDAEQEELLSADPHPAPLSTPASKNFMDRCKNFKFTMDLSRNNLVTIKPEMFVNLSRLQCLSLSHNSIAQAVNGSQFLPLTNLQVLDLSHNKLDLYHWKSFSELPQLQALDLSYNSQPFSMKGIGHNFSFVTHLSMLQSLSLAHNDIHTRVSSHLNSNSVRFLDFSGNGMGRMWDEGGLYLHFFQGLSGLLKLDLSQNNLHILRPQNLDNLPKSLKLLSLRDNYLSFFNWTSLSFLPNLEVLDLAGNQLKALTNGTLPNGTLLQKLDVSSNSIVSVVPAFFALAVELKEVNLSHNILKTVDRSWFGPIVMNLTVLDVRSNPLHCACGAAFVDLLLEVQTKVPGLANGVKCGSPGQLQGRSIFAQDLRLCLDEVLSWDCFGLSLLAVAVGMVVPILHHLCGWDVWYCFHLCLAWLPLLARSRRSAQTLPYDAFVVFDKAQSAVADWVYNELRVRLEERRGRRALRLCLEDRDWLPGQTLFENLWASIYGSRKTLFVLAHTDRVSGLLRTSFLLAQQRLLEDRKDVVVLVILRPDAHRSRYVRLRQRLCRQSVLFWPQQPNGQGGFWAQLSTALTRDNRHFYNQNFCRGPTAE
As to the kind of experiment: Mouse TLR9 reporter gene assay (NF-kB luciferase, HEK293). The settings on record: CpG1826 100 nM. The class given is cell-based. Here is the method: Compounds were dissolved in dimethyl sulfoxide. The day before transfection, mouse TLR7 genestably-expressing HE293 cell line (293XL-mTLR7 cell, InvivoGen, USA) and mouse TLR9 genestably-expressing HEK293 cell line (293-mTLR9 cell, InvivoGen) were seeded in collagen-coated 6-well plate (AGC techno glass) at 3 × 10^5 cells/well in DMEM (GIBCO) with 10% fetal bovine serum (GIBCO), and 10 μg ml^−1 Blastcidin S HCl (GIBCO) and incubated at 37 °C in 5% CO2. The plates were incubated over-night and then cotransfected with 1 μg (mouse TLR7) or 0.3 μg (mouse TLR9) of pNF-kB-Luciferase reporter in a 10:1 ratio with 4 μl of FuGene6 transfection reagent (Promega corporation, USA) following the manufacturer’s instructions. The plates were incubated 24 h. The cells re-seeded into 96-well plate (AGC techno glass) at 2 × 10^4 cells/well in DMEM (GIBCO) with 10% fetal bovine serum (GIBCO), and 10 μg ml^−1 Blastcidin S HCl (GIBCO) and then inhibition with various concentrations of compound. HCQ (mouse TLR7/9, Acros Organics, United Kingdom) was used as positive control. After 30 min, R848 (mouse TLR7/8 ligand) or CpG1826 (mouse TLR9 ligand, Hokkaido System Science Co., Ltd.) added to each well, wherein each final concentration were adjusted to 200 nM R848 (mouse TLR7) or 100 nM CpG1826 (mouse TLR9). The plates were then incubated an additional 6 h at 37 °C in 5% CO2, and then the luciferase activity was measured as activation of mouse TLR7 and 9. The luciferase activity was evaluated as follows: Bright-GloTM Luciferase Assay System (Promega) was added to the incubated sample (100 μl/well); after 2 min, the luminescence intensity of each sample was measured with a luminometer (Envision).
In general terms: In a reporter assay the amount or activity of a reporter protein is the signal.

For the compound `CCN(CCO)CCCC(C)Nc1ccnc2cc(Cl)ccc12` (stereo not drawn) [HCQ, hydroxychloroquine, reference compound], the “mouse TLR9 activity, reporter signal” value reads like this: (compound 0.0001 nM (as headed)) 670258; (compound 0.001 nM (as headed)) 691508; (compound 0.003 nM (as headed)) 691964; (compound 0.01 nM (as headed)) 727784; (compound 0.03 nM (as headed)) 642512; (compound 0.1 nM (as headed)) 455236. Besides, the “mouse TLR9 activity, reporter signal” value (compound 0.3 nM (as headed)) came to 212962; the “mouse TLR9 activity, reporter signal” value (compound 1 nM (as headed)) amounted to 48988; the “mouse TLR9 activity, reporter signal” value (compound 3 nM (as headed)) was determined as 7184; the “mouse TLR9 activity, reporter signal” value (compound 10 nM (as headed)) came to 3474; the “mouse TLR9 activity, reporter signal” value (compound 30 nM (as headed)) is on record as 3862; the “mouse TLR9 activity, reporter signal” value (compound 100 nM (as headed)) amounted to 0.
Turning to `CCOc1nc(C)c2nc(-c3cncc(F)c3)n(Cc3ccc(CN4C[C@@H]5C[C@H]4CN5C)cc3)c2n1` [Cpd-7], the “mouse TLR9 activity, reporter signal” value (compound 0.0001 nM (as headed)) worked out at 670258; the “mouse TLR9 activity, reporter signal” value (compound 0.001 nM (as headed)) amounted to 769686; the “mouse TLR9 activity, reporter signal” value (compound 0.003 nM (as headed)) is on record as 682550; the “mouse TLR9 activity, reporter signal” value (compound 0.01 nM (as headed)) is 681778; the “mouse TLR9 activity, reporter signal” value (compound 0.03 nM (as headed)) is 778720; the “mouse TLR9 activity, reporter signal” value (compound 0.1 nM (as headed)) is listed as 762582. The “mouse TLR9 activity, reporter signal” value (compound 0.3 nM (as headed)) was found to be 758536; the “mouse TLR9 activity, reporter signal” value (compound 1 nM (as headed)) amounted to 750674; the “mouse TLR9 activity, reporter signal” value (compound 3 nM (as headed)) was found to be 718794; the “mouse TLR9 activity, reporter signal” value (compound 10 nM (as headed)) is listed as 519616; the “mouse TLR9 activity, reporter signal” value (compound 30 nM (as headed)) is recorded as 67454; the “mouse TLR9 activity, reporter signal” value (compound 100 nM (as headed)) turned out to be 0.
